Experiment [1] relates to LNCaP cells. The experiment is described as follows: Growth in steroid-reduced medium with DHT and/or bicalutamide. Type of experiment: cell-based, human. To be noted: 10^−9 M DHT. Here is the method: Cell Growth Assays: To measure growth in complete media, cells (2×10^4) were seeded in triplicate in individual wells of 12-well tissue culture plates in RPMI-1640 with 10% FBS and cultured for the indicated number of days. Cells were trypsinized, stained with Trypan Blue (0.4%), and counted in a hemacytometer. […] Colonies were counted after 10 days of incubation. For studies assessing the effect of dihydrotestosterone (DHT) on cell growth, cells (2×10^4) were plated in 12-well plates in complete media. After a 24-hour attachment period, the medium was replaced with steroid-free medium [phenol red-free RPMI 1640 and 5% charcoal-stripped FBS (Sigma)] for 48 hours. The final concentration of testosterone in the steroid-reduced media was less than 5 pM. After 48 hours of steroid depletion, cells were re-fed with fresh steroid-reduced medium with or without the indicated concentrations of DHT and/or bicalutamide (10 μM), and total cell numbers were assessed 7 days later.

The target of experiment [2] is Androgen Receptor (AR) (Homo sapiens, UniProt P10275, T878A). How it is done: Luciferase Reporter Assays: Vector control or ebp1-transfected LNCaP (5×10^4) cells were plated in twelve-well plates in complete media. When cells reached 50-60% confluence, they were transfected with 0.5 μg of MMTV-luc using the Fugene-6 reagent (Roche). Cells were also transfected with the RL-TK vector as an internal control. […] Luciferase activity was determined as previously described using a Dual-Luciferase kit (Promega, Madison, Wis.). The activities of renilla luciferase were used to normalize any variations in transfection efficiency. The promoter activities of each plasmid construct were calculated as the firefly-renilla luciferase activity ratios. All transfection experiments were carried out in triplicate wells and repeated three times.
Sequence of Androgen Receptor (AR) (P10275 whole entry T878A): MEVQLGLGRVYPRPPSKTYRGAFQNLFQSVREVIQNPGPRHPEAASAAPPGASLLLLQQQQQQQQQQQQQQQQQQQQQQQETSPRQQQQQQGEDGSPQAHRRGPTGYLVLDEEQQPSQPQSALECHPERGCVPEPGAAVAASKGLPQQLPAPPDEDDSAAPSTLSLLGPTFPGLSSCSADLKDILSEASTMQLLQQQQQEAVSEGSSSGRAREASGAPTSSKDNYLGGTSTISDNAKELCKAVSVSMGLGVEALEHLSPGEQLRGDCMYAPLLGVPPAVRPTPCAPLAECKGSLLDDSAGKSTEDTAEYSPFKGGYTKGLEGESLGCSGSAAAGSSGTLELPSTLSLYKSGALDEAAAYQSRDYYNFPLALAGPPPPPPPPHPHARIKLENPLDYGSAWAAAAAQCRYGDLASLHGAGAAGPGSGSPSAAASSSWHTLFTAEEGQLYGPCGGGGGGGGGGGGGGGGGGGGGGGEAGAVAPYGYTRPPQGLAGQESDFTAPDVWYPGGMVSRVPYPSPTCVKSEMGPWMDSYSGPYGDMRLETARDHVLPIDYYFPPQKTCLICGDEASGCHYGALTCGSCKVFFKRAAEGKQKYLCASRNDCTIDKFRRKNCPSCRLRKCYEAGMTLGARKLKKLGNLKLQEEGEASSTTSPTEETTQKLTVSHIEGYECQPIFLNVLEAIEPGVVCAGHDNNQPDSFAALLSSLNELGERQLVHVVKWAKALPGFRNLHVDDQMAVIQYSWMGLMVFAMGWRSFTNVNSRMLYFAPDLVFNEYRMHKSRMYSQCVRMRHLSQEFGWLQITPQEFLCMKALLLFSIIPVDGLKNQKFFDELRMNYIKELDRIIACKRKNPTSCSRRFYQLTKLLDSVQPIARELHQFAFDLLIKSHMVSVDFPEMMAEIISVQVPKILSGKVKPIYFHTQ

With `C[C@]12CCC(=O)C[C@@H]1CC[C@@H]1[C@@H]2CC[C@]2(C)[C@@H](O)CC[C@@H]12` [DHT, dihydrotestosterone], the “stimulation of growth as compared to no DHT” value in experiment [1] (Ebp1 transfectants) came out at 35%; in experiment [1] (LNCaP vector controls, maximal), 250%.
As to `C[C@]1(O)CC[C@H]2[C@@H]3CCC4=CC(=O)CCC4=C3C=C[C@@]21C` [R1881], the “activation of luciferase activity (MMTV-luc)” value in experiment [2] (LNCaP vector controls, R1881 10^−8 M) was determined as 20 fold. Besides, in experiment [2] (ebp1 transfectants), the “AR activation (MMTV-luc)” value was “neither R1881 nor cyproterone acetate nor the combination thereof stimulated AR activation”.

The values above are taken from patent publication US7718626B2, “ErbB3 binding protein compositions and methods of use” (University of Maryland, Baltimore, priority 2005, dated 2010).
